Measured values from article PMC7866984, “Molecular Structure, In Vitro Anticancer Study and Molecular Docking of New Phosphate Derivatives of Betulin” (Molecules, 2021).
Read-outs that look alike come from different tables or passages of the source.

Tests used:
[1] = tested on: amelanotic melanoma (C-32) cells; assay: WST-1 cell viability assay, C-32; assay type: cell-based, human; details: WST-1, 72 h
Description: (§1) Evaluation of the effect of new betulin derivatives on the viability of the cultured cells was performed using the WST-1(water soluble tetrazolium salt) assay. Betulin 1 and cisplatin were used as the reference compounds.
(§2) The synthesized compounds and references were tested for cytotoxic activity in vitro against human cancer cell lines such as amelanotic melanoma (C-32, ATCC, Rockville, MD, USA), glioblastoma (SNB-19, DSMZ, Braunschweig, Germany), and breast cancer (T47D, and MDA-MB-231, ATCC, Rockville, MD, USA). Cell cultures were maintained using DMEM (Lonza, Basel, Switzerland) supplemented with 10% fetal bovine serum (FBS) (Biological Industries Cromwell, CT, USA) and penicillin (10,000 U/mL) –streptomycin (10 mg/mL) mix (Lonza, Basel, Switzerland).
(§3) Cultures were performed in 96-well plates (Nunc Thermo Fisher Scientific, Waltham, MA, USA). Cells were seeded at 5 × 10^4/well and incubated for 24 h (at 37 °C, 5% CO2, constant humidity). Then, the medium was replaced with a fresh one with the addition of test compounds in the concentration: 25; 12.5; 6.25; 3.12; 1.56; 0.78; 0.39; 0 µg/mL and incubated again for a further 72 h. After this time, the WST-1 test (Roche Molecular Biochemicals, Mannheim, Germany) was performed to assess the metabolic activity of the cells. The principle of the WST-1 colorimetric test is based on the ability of live cells to decompose bright red tetrazole salts of WST-1 to dark red formazan. The reaction is mediated by mitochondrial dehydrogenases and correlates with the number of cells and their metabolic activity. The absorbance was measured at λ = 450 nm with a UVM340 microplate reader (Biogenet, Józefów, Poland). Results were expressed as a mean value of at least three independent experiments performed in triplicate.

[2] = tested on: glioblastoma (SNB-19) cells; assay: WST-1 cell viability assay, SNB-19; assay type: cell-based, human; details: for IC50: WST-1, 72 h
Description: as §1, §2, §3

[3] = tested on: breast cancer T47D cells; assay: WST-1 cell viability assay, T47D; assay type: cell-based, human; details: for IC50: read-out: IC50 ± SD, T47D
Description: as §1, §2, §3

[4] = tested on: breast cancer MDA-MB-231 cells; assay: WST-1 cell viability assay, MDA-MB-231; assay type: cell-based, human; details: for IC50: read-out: IC50 ± SD, MDA-MB-231
Description: as §1, §2, §3

[5] = RP-TLC experimental lipophilicity; assay type: physicochemical; details: for RM0 / logPTLC: RP-TLC; for RM0: acetone/Tris buffer pH 7.4, extrapolated to zero acetone; for logPTLC: from RM0 by calibration equation; for -b: slope of regression plot RM = RM0 + bC
Excerpt: Lipophilicity is an important physicochemical parameter related to the biological activity of compounds. This descriptor, contained in Lipiński’s rule of five, concerns the transport of a compound through the biological membrane system and the formation of a compound–receptor complex. To assess the lipophilic nature of triterpenoids 3–5, 6a–6e, and 7a–7e, the reverse phase chromatography (RP-TLC) method was used (chromatographic procedure by RP-TLC is included in the Supplementary Materials). The theoretical characteristics of the chromatographic parameters (RM0, log PTLC) of the tested derivatives were also performed. […]
Chromatographic procedure by RP-TLC
The experimental lipophilicity parameters was determined using reversed-phase thin-layer chromatography (RP-TLC). The stationary phase was an aluminium backed silica gel RP-18 F254 S plates (Merck, Darmstadt, Germany). Chloroform solutions of reference compounds […]
(acetanilide, 4-bromoacetophenone, benzophenone, anthracene, DDT) and triterpenes 3-5, 6a-6e and 7a-7e were spotted on to the plates in the amount of 2 µL. The chromatograms were performed in triplicate for each compound. The chromatographic chambers were filled of mobile phases consisting of a mixture of acetone (POCh, Gliwice, Poland) and aqueous solution of buffer Tris [(tris-hydroxymethyl)aminomethane] (Fluka, Loughborough, 0.2 M, pH 7.4). The percent acetone volume was varied within the range of 90-60%, in 5% increments. The spots of compounds were visualized by spraying the plates with 10% ethanolic solution of sulphuric acid (VI) and heating for 3 min at 110°C [60]]. The RM values were calculated by the equation RM = log (1/Rf-1) on the basis of average Rf values. The RM0 parameters were obtained by extrapolating on the acetone content to zero, according to the equation RM = RM0 + bC (C – the percentage concentration of acetone in the mobile phase, b – the slope of the regression plot).
The experimental lipophilicity as log PTLC for triterpenes 3-5, 6a-6e and 7a-7e was calculated […]
obtained on the correlation between the literature log Plit values and the experimental RM0 values […]
Table S5. The theoretical values of lipophilicity for tested compounds 3-5, 6a-6e and 7a- […]
Table S6. The correlation matrix for theoretically obtained lipophilicity parameters of compounds 3-5, 6a-6e and 7a-7e. […]

[6] = Homo sapiens, C32, 72 h, read-out: IC50 ± SD, C-32
[7] = Homo sapiens, SNB-19, 72 h, read-out: IC50 ± SD, SNB-19
[8] = Homo sapiens, C32, 72 h, Table 5, betulonic/betulinic acid derivatives, read-out: IC50, C-32
[9] = Homo sapiens, SNB-19, 72 h, Table 5, betulonic/betulinic acid derivatives, read-out: IC50, SNB-19

SMILES	IC50 [1, 6] [µM]	IC50 [2, 7] [µM]	IC50 ([3]; Homo sapiens, T47D, 72 h) [µM]	RM0 [5]	logPTLC [5]	-b [5]	melting point [°C]	IC50 [1, 8] [µM]	IC50 [2, 9] [µM]	further results
C=C(COP(=O)(OCC)OCC)[C@@H]1CC[C@]2(COC(=O)C#Cc3ccccc3)CC[C@]3(C)C(CCC4[C@@]5(C)CC[C@H](OC(=O)C#Cc6ccccc6)C(C)(C)C5CC[C@]43C)C12 (stereo partly drawn) [Compound 6d, 30-Diethoxyphosphoryloxy-3,28-di(2-phenylpropynoyl)betulin]	31.5 ± 1.56	11.2 ± 0.28	> 50	7.877	10.174	0.086	89 to 91	–	–	IC50 ([4]; Homo sapiens, MDA-MB-231, 72 h): > 50 µM
CCOP(=O)(C=C(C)C1CCC2(C(=O)O)CCC3(C)C(CCC4C5(C)CCC(O)C(C)(C)C5CCC43C)C12)OCC (stereo not drawn) [R=29-P(O)(OC2H5)2, R1=OH, reference compound]	–	–	–	–	–	–	–	47.5 ± 2.96	7.67 ± 1.57	–
C=C(COP(=O)(OCC)OCC)[C@@H]1CC[C@]2(C(=O)O)CC[C@]3(C)C(CCC4[C@@]5(C)CCC(=O)C(C)(C)C5CC[C@]43C)C12 (stereo partly drawn) [Compound 8]	–	–	–	–	–	–	–	45.7 ± 6.85	45.8 ± 5.27	activity against T47D (in words) [3]: no activity; activity against MDA-MB-231 (in words) [4]: no activity
C#CCOC(=O)OC[C@]12CC[C@@H](C(=C)COP(=O)(OCC)OCC)C1C1CCC3[C@@]4(C)CC[C@H](OC(=O)OCC#C)C(C)(C)C4CC[C@@]3(C)[C@]1(C)CC2 (stereo partly drawn) [Compound 6e, 30-Diethoxyphosphoryloxy-3,28-dipropargyloxycarbonyloxybetulin]	11.4 ± 0.76	9.23 ± 0.57	> 50	6.490	8.419	0.076	129 to 131	–	–	–
C=C(C)[C@@H]1CC[C@]2(CO)CC[C@]3(C)[C@H](CC[C@@H]4[C@@]5(C)CC[C@H](O)C(C)(C)[C@@H]5CC[C@]43C)[C@@H]12 [Betulin]	–	–	–	–	–	–	–	–	–	IC50 ([1]; Homo sapiens, C32, read-out: IC50 ± SD, C-32): 15.6 ± 1.11 µM; IC50 ([2]; Homo sapiens, SNB-19, read-out: IC50 ± SD, SNB-19): 9.93 ± 0.25 µM; IC50 ([3]; Homo sapiens, T47D, WST-1, 72 h): > 50 µM; IC50 ([4]; Homo sapiens, MDA-MB-231, WST-1, 72 h): 7.76 ± 1.87 µM
C=C(CP(=O)(OCC)OCC)[C@@H]1CC[C@]2(C(=O)O)CC[C@]3(C)C(CCC4[C@@]5(C)CCC(O)C(C)(C)C5CC[C@]43C)C12 (stereo partly drawn) [R=30-P(O)(OC2H5)2, R1=OH, reference compound]	–	–	–	–	–	–	–	> 50	> 50	–
C=C(COP(=O)(OCC)OCC)C1CCC2(CO)CCC3(C)C(CCC4C5(C)CCC(O)C(C)(C)C5CCC43C)C12 (stereo not drawn) [Compound 5, 30-Diethoxyphosphoryloxybetulin]	43.5 ± 2.5	10.9 ± 1.33	1.04 ± 0.14	3.719	4.914	0.046	194 to 195	–	–	IC50 ([4]; Homo sapiens, MDA-MB-231, 72 h): 0.4 ± 0.02 µM
C#CCOC(=O)OC[C@]12CC[C@@H](C(=C)COP(=O)(OCC)OCC)C1C1CCC3[C@@]4(C)CC[C@H](O)C(C)(C)C4CC[C@@]3(C)[C@]1(C)CC2 (stereo partly drawn) [Compound 7e, 30-Diethoxyphosphoryloxy-28-propargyloxycarbonyloxybetulin]	3.97 ± 0.86	1.59 ± 0.09	> 50	5.302	6.916	0.063	172 to 174	–	–	–
C=C(C)[C@@H]1CC[C@]2(C(=O)O)CC[C@]3(C)[C@H](CC[C@@H]4[C@@]5(C)CC[C@H](O)C(C)(C)[C@@H]5CC[C@]43C)[C@@H]12 [betulinic acid, reference compound]	–	–	–	–	–	–	–	–	–	IC50 ([1]; Homo sapiens, C32, Table 5, betulonic/betulinic acid derivatives, read-out: IC50, C-32): 8.63 ± 0.9 µM; IC50 ([2]; Homo sapiens, SNB-19, Table 5, betulonic/betulinic acid derivatives, read-out: IC50, SNB-19): 20.1 ± 1.26 µM
C=C(COP(=O)(OCC)OCC)[C@@H]1CC[C@]2(COC(C)=O)CC[C@]3(C)C(CCC4[C@@]5(C)CC[C@H](OC(C)=O)C(C)(C)C5CC[C@]43C)C12 (stereo partly drawn) [Compound 4, 3,28-Diacetoxy-30-diethoxyphosphoryloxybetulin]	33.9 ± 1.59	5.01 ± 0.78	1.3 ± 0.13	5.740	7.470	0.064	61 to 63	–	–	IC50 ([4]; Homo sapiens, MDA-MB-231, 72 h): 14.5 ± 1.37 µM
C=C(CP(=O)(OCC)OCC)[C@@H]1CC[C@]2(C(=O)O)CC[C@]3(C)C(CCC4[C@@]5(C)CCC(OC(C)=O)C(C)(C)C5CC[C@]43C)C12 (stereo partly drawn) [R=30-P(O)(OC2H5)2, R1=CH3C(O)O, reference compound]	–	–	–	–	–	–	–	30.7 ± 2.17	1.29 ± 0.15	–
C=C(CO)[C@@H]1CC[C@]2(COC(C)=O)CC[C@]3(C)C(CCC4[C@@]5(C)CC[C@H](OC(C)=O)C(C)(C)C5CC[C@]43C)C12 (stereo partly drawn) [Compound 3, 3,28-Diacetyl-30-hydroxybetulin]	–	–	–	5.655	7.362	0.064	–	–	–	–
C#CC(=O)OC[C@]12CC[C@@H](C(=C)COP(=O)(OCC)OCC)C1C1CCC3[C@@]4(C)CC[C@H](OC(=O)C#C)C(C)(C)C4CC[C@@]3(C)[C@]1(C)CC2 (stereo partly drawn) [Compound 6a, 30-Diethoxyphosphoryloxy-3,28-dipropynoylbetulin]	–	–	9.5 ± 0.74	6.893	8.929	0.080	127 to 130	–	–	–
N.N.[Cl][Pt][Cl] [Cisplatin, reference compound]	–	–	–	–	–	–	–	–	–	IC50 ([1]; read-out: IC50 ± SD, C-32): 4.29 ± 0.65 µM; IC50 ([2]; read-out: IC50 ± SD, SNB-19): 5.29 ± 0.12 µM; IC50 ([3]; WST-1, 72 h): 6.26 ± 1.24 µM; IC50 ([4]; WST-1, 72 h): 5.47 ± 0.05 µM
CCOP(=O)(C=C(C)C1CCC2(C(=O)O)CCC3(C)C(CCC4C5(C)CCC(=O)C(C)(C)C5CCC43C)C12)OCC (stereo not drawn) [R=29-P(O)(OC2H5)2, R1=O=, reference compound]	–	–	–	–	–	–	–	45.5 ± 3.72	1.64 ± 0.18	–
C=C(COP(=O)(OCC)OCC)[C@@H]1CC[C@]2(C(=O)O)CC[C@]3(C)C(CCC4[C@@]5(C)CCC(O)C(C)(C)C5CC[C@]43C)C12 (stereo partly drawn) [Compound 9]	–	–	–	–	–	–	–	> 50	5.98 ± 0.43	IC50 fold higher than 30-phosphonate derivative of 3-acetylbetulinic acid ([2]; SNB-19): more than 4.5 fold; activity against T47D (in words) [3]: no activity; activity against MDA-MB-231 (in words) [4]: no activity
C=C(COP(=O)(OCC)OCC)[C@@H]1CC[C@]2(COC(=O)C#CC3CC3)CC[C@]3(C)C(CCC4[C@@]5(C)CC[C@H](OC(=O)C#CC6CC6)C(C)(C)C5CC[C@]43C)C12 (stereo partly drawn) [Compound 6c, 3,28-Di(2-cyclopropylpropynoyl)-30-diethoxyphosphoryloxybetulin]	> 50	> 50	> 50	6.419	8.330	0.071	67 to 70	–	–	IC50 ([4]; Homo sapiens, MDA-MB-231, 72 h): > 50 µM
